Earlier results as cited in patent US6660871B2, “Synthesis of 4H-chromene derivatives” (Thomas Jefferson Unversity, priority 2001, dated 2003).

System: tumor cells

CCOC(=O)C1=C(N)Oc2ccc(Br)cc2C1C(C#N)C(=O)OCC (stereo not shown) [HA14-1]
apoptosis of tumor cells: induces apoptosis of tumor cells
